According to paper PMC9076072 (RSC Advances, 2019):

Tested on: RAW 264.7 macrophages
Test: Macrophage cytotoxicity seen in the anti-inflammatory assay

| SMILES | Concentration at which macrophage cytotoxicity appeared |
| --- | --- |
| C=C(C)[C@@H]1CC[C@]2(C(=O)O)CC[C@]3(C)[C@H](CC[C@@H]4[C@@]5(C)CC[C@H](O)C(C)(C)[C@@H]5CC[C@]43C)[C@@H]12 [Compound 1, Betulinic acid] | 20 µM |
| C[C@H]1[C@H](C)CC[C@]2(C(=O)O)CC[C@]3(C)C(=CC[C@@H]4[C@@]5(C)CC[C@H](O)C(C)(C)[C@@H]5CC[C@]43C)[C@H]12 [Compound 2, Ursolic acid] | 20 µM |
